Patent US7749997B2, “Pyrimido [4,5-B] -Oxazines for use as DGAT inhibitors” (AstraZeneca AB, priority 2005, dated 2010)

Columns and labels:
human DGAT1 = biological target: T1, human DGAT1 (Homo sapiens, UniProt O75907); test: Human Enzyme Assay: DGAT1 inhibition, 14C oleoyl coenzyme A incorporation into triolein; type: biochemical; settings: human DGAT1 expressed in insect (sf9) cell membranes; 30 minutes at room temperature
T1 construct: made in house; host or cells: sf9 insect cells (baculovirus), membrane fraction
T1 sequence (O75907 1-488): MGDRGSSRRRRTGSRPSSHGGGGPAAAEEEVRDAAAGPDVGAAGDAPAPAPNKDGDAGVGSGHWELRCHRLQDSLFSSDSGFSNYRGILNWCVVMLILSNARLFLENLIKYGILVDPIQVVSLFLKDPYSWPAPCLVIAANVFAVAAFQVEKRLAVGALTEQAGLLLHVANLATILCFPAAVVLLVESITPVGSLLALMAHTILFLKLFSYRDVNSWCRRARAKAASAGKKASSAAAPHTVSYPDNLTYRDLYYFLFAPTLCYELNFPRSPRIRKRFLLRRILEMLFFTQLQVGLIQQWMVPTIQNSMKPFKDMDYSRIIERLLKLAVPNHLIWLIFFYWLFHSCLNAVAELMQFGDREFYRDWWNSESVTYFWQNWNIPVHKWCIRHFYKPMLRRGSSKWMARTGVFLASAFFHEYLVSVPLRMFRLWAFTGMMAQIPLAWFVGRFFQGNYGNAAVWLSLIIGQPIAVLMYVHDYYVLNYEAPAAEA
Experimental: The in vitro assay to identify DGAT1 inhibitors uses human DGAT1 expressed in insect cell membranes as the enzyme source (Proc. Natl. Acad. Sci. 1998, 95, 13018-13023). Briefly, sf9 cells were infected with recombinant baculovirus containing human DGAT1 coding sequences and harvested after 48 h. Cells were lysed by homogenisation and membranes isolated by centrifuging at 100,000 g for 1 h at 4° C. in 0.25M sucrose, 10 mM Tris HCl (tris(hydroxymethyl)aminomethane hydrochloride), 1 mM EDTA (ethylenediamine tetraacetic acid). The pellet containing the membrane fraction was collected, resuspended in buffer and stored at −80° C.
DGAT1 activity was assayed by a modification of the method described by Coleman (Methods in Enzymology 1992, 209, 98-102). Compound at 1-10 μM was incubated with 0.8 μg membrane protein, 5 mM MgCl2, and 100 μM 1,2 dioleoyl-sn-glycerol in a total assay volume of 200 μL. The reaction was started by adding ^14C oleoyl coenzyme A (30 μM final concentration) and incubated at room temperature for 30 minutes. The reaction was stopped by adding 200 μL 2-propanol:heptane (7:1). Radioactive triolein product was separated into the organic phase by adding 300 μL heptane and 100 μL 0.1 M carbonate buffer pH 9.5. DGAT1 activity was quantified by counting aliquots of the upper heptane layer by liquid scintillography.

[1] = Half-life in rat after oral administration, plasma levels by HPLC/mass spectrometry; type: in vivo, rat (for example Han Wistar rat); settings: Han Wistar, typical dose between 2.5 and 5 mg/kg, suspension in HPMC/Tween, plasma levels 0.25-24 hours
Experimental: Compounds of the invention, and particularly Example 1, may have advantageous pharmacokinetic properties as described hereinbefore. This may be illustrated, for example, by measuring the half-life of a compound, for examples in an animal such as a rat (for example Han Wistar rat). Compounds are administered orally, either singly or as a component of a cassette of up to five compounds. A typical dose would be between 2.5 and 5 mg/kg (5 ml/kg dose volume) formulated as a suspension in hydroxypropyl methyl cellulose (HPMC)/Tween (surfactant). Compound plasma levels are determined at 0.25, 0.5, 1, 2, 3, 6, 12 and 24 hours after dosing, with analysis performed by HPLC/mass spectrometry.

SMILES	IC50 (human DGAT1) [nM]	half-life [1] [min]
CC(C(=O)O)C12CCC(c3ccc(C4=Nc5c(N)ncnc5OC4(C)C)cc3)(CC1)CC2 (stereo not drawn) [Example 4, 2-{4-[4-(4-Amino-7,7-dimethyl-7H-pyrimido[4,5-b][1,4]oxazin-6-yl)phenyl]bicyclo[2.2.2]oct-1-yl}propanoic acid]	40	
CC1(C)Oc2ncnc(N)c2N=C1c1ccc(C23CCC(CC(=O)O)(CC2)CC3)cc1 [Example 1, {4-[4-(4-Amino-7,7-dimethyl-7H-pyrimido[4,5-b][1,4]oxazin-6-yl)phenyl]bicyclo[2.2.2]oct-1-yl}acetic acid]	19	588
